ChEMBL document CHEMBL5154882, “Discovery of 4-Hydroxyquinazoline Derivatives as Small Molecular BET/PARP1 Inhibitors That Induce Defective Homologous Recombination and Lead to Synthetic Lethality for Triple-Negative Breast Cancer Therapy” (J Med Chem, 2022)
The source made the active and inactive calls. The calls are words filed in the database; no cut-off is given here.

Key:
[1] = system: MDA-MB-231; experiment: Antitumor activity against human MDA-MB-231 cells xenografted in BALB/c nude mouse assessed as downregulation of Rad51 at 80 mg/kg by Western blot analysis; format: functional, organism-based
[2] = Toxicity in BALB/c nude mouse xenografted with human MDA-MB-468 cells assessed as morphological changes in liver at 80 mg/kg, ig administered daily for 16 days measured every 3 days by hematoxyin-eosin staining based analysis; format: organism-based; settings: in vivo, po, 384 h, time 16 day
[3] = Toxicity in BALB/c nude mouse xenografted with human MDA-MB-468 cells assessed as morphological changes in kidney at 40 to 80 mg/kg, ig administered daily for 16 days measured every 3 days by hematoxyin-eosin staining based analysis; format: organism-based; settings: in vivo, po, 384 h, dose 40-80 mg/kg, time 16 day

Which Activity [1] does the source give for `COc1cc(OC)c2c(=O)[nH]c(-c3cccc(Cc4n[nH]c(=O)c5ccccc45)c3)nc2c1` here?
The Activity was “Active”.

What about the Activity [2] of the same compound?
The Activity was “Non-Toxic”.

And the Activity [3]?
Its Activity is “Non-Toxic”.
